One test deals with PI3Kβ^+/+ MEFs. The test is described as follows: Proliferation curve of mouse embryonic fibroblasts (MEFs) with p110β inhibitors. The test is classed as cell-based. The protocol:
FIG. 3. PI3Kβ^KR expression dosage inversely correlates with phenotype severity. a) MEFs were derived from normal (PI3Kβ^KR/KR(High)) or abnormal PI3Kβ^KR/KR (Low)) embryos and the expression level of the PI3Kβ^KR/KR protein was analyzed by SDS-PAGE and immunoblotting, using the indicated antibodies. b) analysis of p110β catalytic activity. Lipid kinase assay was performed on p110β immunoprecipitated from wild type (PI3Kβ^+/+) and PI3Kβ^KR/KR(High) MEFs. c) proliferation curve of mutant MEFs with high and low PI3Kβ^KR expression levels compared to that of wild-type MEFs with or without 100 nM TGX-221 treatment (TGX).
Since p110β is activated downstream growth factor receptors, and cell growth is the driving force during embryonic development, the present inventors analyzed cell proliferation of PI3Kβ^KR/KR(High), PI3Kβ^KR/KR(Low) and PI3Kβ^+/+ MEFs.

The test system of test [1] is wild-type (PI3Kβ^+/+/neuT) tumor derived mammary gland cancer cells. The test is described as follows: Proliferation curves of cultured tumor derived mammary gland cancer cells. In kind it is cell-based, mouse. Conditions: wild-type tumor cells (FIG. 10). The protocol: FIG. 10. Requirement of PI3Kβ for cell proliferation of tumor derived mammary gland cancer cell lines. Proliferation curves of cultured tumor cells of the two genotypes in the absence or presence of TGX-155 (10 μM) and TGX-221 (100 nM)p110β selective inhibitors. Statistical significance: wild-type cells vs all other conditions; other pairs of datasets: n.s.
Moreover, to further test if the protection against breast cancer development was intrinsic to the lack of the kinase activity, tumor cells from PI3Kβ^KR/KR and PI3Kβ^+/+ mice were cultured in the presence of p110β selective inhibitors, TGX-155 and TGX-221.

Test [2] concerns Akt/PKB phosphorylation in liver. Description: Insulin-stimulated Akt phosphorylation in liver of treated mice. The test is classed as in vivo, mouse. The procedure:
FIG. 5. After insulin stimulation, Akt phosphorylation declines in PI3Kβ^KR/KR liver faster than controls. Phosphorylation of Erk1/2 and Akt (on Thr308 and Ser473) in livers of mice of the given genotype with and without TGX-155 treatment. Lower panel: quantification of Akt phosphorylation on Ser473 (n=5)
To test this hypothesis, Akt/PKB phosphorylation was tested in wild-type and mutant mice in tissues known to be particularly sensitive to insulin signaling like the liver.

With `Cc1cc(C(C)Nc2ccccc2)c2nc(N3CCOCC3)cc(=O)n2c1` (stereo not drawn) [TGX-221], the “growth rate (cell proliferation) of MEFs” value in the test on PI3Kβ^+/+ MEFs (PI3Kβ^+/+ MEFs, 100 nM TGX-221, versus controls (FIG. 3c)) is “growth rate comparable to that of the controls”. The “proliferation of wild-type tumor cells” value in test [1] (TGX-221 100 nM) is on record as “significant reduction in proliferation”.

On to `Cc1cc(F)ccc1Oc1cccc2c(=O)cc(N3CCOCC3)[nH]c12` [TGX-155], for which the “growth rate (cell proliferation) of MEFs” value with PI3Kβ^+/+ MEFs (PI3Kβ^+/+ MEFs treated with TGX-155, versus controls) is recorded as “growth rate comparable to that of the controls”. In addition, the “Akt phosphorylation after 5 minutes of insulin stimulation” value in test [2] (liver of wild type mice treated with TGX-155, 5 minutes of insulin stimulation (FIG. 5)) was “no differences in Akt phosphorylation”. Further, the “decline of Akt activation after insulin stimulation” value in test [2] (liver, later time of insulin stimulation, versus untreated wild-type controls (FIG. 5)) is “declined significantly faster”. The “proliferation of wild-type tumor cells” value in test [1] (TGX-155 10 μM) is listed as “significant reduction in proliferation”.
